{"source": "paper PMC12700550", "about": "“DLL4^+ neutrophils promote Notch1-mediated endothelial PANoptosis to exacerbate acute lung injury in sepsis” (The Journal of Clinical Investigation, 2025)", "key": {"c-GSDMD [1]": {"test_system": "c-GSDMD", "assay": "c/t GSDMD (pyroptosis) in PVECs cocultured with neutrophils, Western blot", "type": "cell-based, mouse", "details": "for c/t GSDMD (Figure 4G): 10 μM peptide, 16 h, individual replicates", "description": "Wild-type PVECs (5 × 10^5) were cocultured with sorted DLL4^+ neutrophils (5 × 10^5) or DLL4^– neutrophils (5 × 10^5) and then treated with different dosages of peptides or 10 μM DAPT (Thermo Fisher Scientific), 10 μM NDI (GenScript), or 10 μM NDI scramble (GenScript). Notch1-knockdown PVECs (5 × 10^5) were cocultured with sorted DLL4^+ neutrophils (5 × 10^5). After 16 hours, neutrophils were washed away by PBS, and PVECs were collected for further experiments. Cell viability was evaluated by propidium iodide staining using the FITC Annexin V Apoptosis Detection Kit I (catalog 556547, BD Pharmingen). Cell death was quantified as the percentage of propidium iodide–positive cells by flow cytometry.\nPVECs and lung tissue were collected in previous steps. Whole-cell proteins were extracted, and the protein concentration was measured using an ABC protein assay kit (catalog 5000002, Bio-Rad). Proteins were separated using NuPAGE 4%–12% Bis-Tris gels (Invitrogen), transferred to PVDF membranes, and immunoblotted with the antibodies indicated in the figure legends according to the manufacturer’s recommendations. The ZBP1 antibody (catalog PA5-20455; 1:1,000) used in this study was obtained from Thermo Fisher Scientific, and the c-GSDMD (catalog 10137S; 1:250), GSDMD (catalog 39754S; 1:1000), c-caspase-3 (catalog 9661L; 1:250), caspase-3 (catalog 9662S; 1:1,000), p-MLKL (catalog 37333S; 1:250), MLKL (catalog 37705S; 1:1,000), N1ICD (c-Notch1) (catalog 4147S; 1:250), and Notch1 (catalog 3608S; 1:1,000) antibodies were obtained from Cell Signaling Technology. GAPDH (catalog 60004-1-Ig; 1:10,000) and β-actin (catalog A5441, Sigma-Aldrich; 1:5,000) were obtained from ProteinTech. After the blots were incubated with primary antibodies, the membranes were washed 3 times, and the blots were subsequently incubated with the corresponding fluorescent secondary antibody (LI-COR). Bands were detected using an Odyssey FC Dual-Mode Imaging system 2800 (LI-COR)."}, "c-GSDMD [2]": {"test_system": "c-GSDMD", "assay": "c/t GSDMD in lungs of CLP mice, Western blot", "type": "in vivo, mouse", "details": "10 mg/kg NDI, 20 h; for lung c/t GSDMD (Figure 5D): individual mice, 10 mg/kg", "description": "Sepsis was induced in mice by cecal ligation and puncture (CLP) as described previously ([45], [46]). Mice were anesthetized with isoflurane to a surgical plane and placed in a supine position. CLP was performed through a midline laparotomy. The abdomen was shaved and disinfected. Through a 2 cm midline incision, the cecum was exposed and then ligated with a 4-0 silk suture 1 cm proximal from the distal cecal extremity. For 20-hour CLP experiments, the cecum was punctured twice with a 22-gauge needle. A small amount of cecal content was extruded through both holes, and the ligated cecum was returned to the peritoneal cavity. The wound was closed in layers. For 10-day sepsis survival studies, the cecum was punctured once with a 22-gauge needle. A small amount of cecal content was extruded. Mice were allocated to the vehicle and adoptive transfer of DLL4^+ neutrophils or DLL4^– neutrophils groups. Adoptive transfer mice received a retro-orbital injection of 1 × 10^6 cells per mouse DLL4^+ neutrophils or DLL4^– neutrophils in […] phosphate-buffered saline (PBS) immediately after abdominal closure in both the 20-hour experiments and the survival study. Vehicle groups received an equivalent volume of PBS, while treatment groups received NDI 10 mg/kg in […] PBS via retro-orbital injection after CLP. This dose was chosen primarily on the basis of our laboratory’s prior experience, we have consistently used this dose in mouse CLP models with reproducible efficacy and without observable toxicity ([39], [44]). Sham-operated animals underwent a laparotomy without CLP. After closure, the mice received a subcutaneous injection of 0.5 mL of normal saline to overcome surgery-induced dehydration. […]\nPVECs and lung tissue were collected in previous steps. Whole-cell proteins were extracted, and the protein concentration was measured using an ABC protein assay kit (catalog 5000002, Bio-Rad). […] Bands were detected using an Odyssey FC Dual-Mode Imaging system 2800 (LI-COR)."}, "C57BL/6 mice, CLP sepsis": {"test_system": "C57BL/6 mice, CLP sepsis", "assay": "Serum aspartate aminotransferase (AST), CLP mice", "type": "in vivo, mouse", "design": "serum AST (Figure 6B): unit not given here", "details": "20 h; for serum AST (Figure 6B): 10 mg/kg NDI, individual mice", "description": "Sepsis was induced in mice by cecal ligation and puncture (CLP) as described previously ([45], [46]). Mice were anesthetized with isoflurane to a surgical plane and placed in a supine position. CLP was performed through a midline laparotomy. The abdomen was shaved and disinfected. Through a 2 cm midline incision, the cecum was exposed and then ligated with a 4-0 silk suture 1 cm proximal from the distal cecal extremity. […] A small amount of cecal content was extruded through both holes, and the ligated cecum was returned to the peritoneal cavity. The wound was closed in layers. […] A small amount of cecal content was extruded. […] Vehicle groups received an equivalent volume of PBS, while treatment groups received NDI 10 mg/kg in […] PBS via retro-orbital injection after CLP. This dose was chosen primarily on the basis of our laboratory’s prior experience, we have consistently used this dose in mouse CLP models with reproducible efficacy and without observable toxicity ([39], [44]). Sham-operated animals underwent a laparotomy without CLP. After closure, the mice received a subcutaneous injection of 0.5 mL of normal saline to overcome surgery-induced dehydration. […] All mice were subcutaneously injected with a single dose of 0.1 mg/kg buprenorphine after CLP. Serum levels of alanine aminotransferase, aspartate aminotransferase, and lactate dehydrogenase were determined using specific colorimetric enzymatic assays (Pointe Scientific Inc.) according to the manufacturer’s instructions."}}, "note": "Values joined by “and” are separate entries in the source; they are usually repeats but may differ in a detail not shown here. Equal entries are not always repeated.", "data": [{"sequence": "ECAGSPCHNGGTCEDGI [NDI]", "values": [{"measurement": "effect on c-GSDMD", "setting": "c-GSDMD [1]; 10 μM NDI, DLL4^+ neutrophil coculture", "value": "significantly reduced these markers of PANoptosis"}, {"measurement": "c/t GSDMD (Figure 4G)", "setting": "c-GSDMD [1]; DLL4^+ neutrophil coculture", "value": "1.2879 and 0.9868 and 1.126 and 1.624 and 1.978 and 2.103 and 0.1622 and 0.328 and 1.184"}, {"measurement": "c/t GSDMD (Figure 4G)", "setting": "c-GSDMD [1]; DLL4^– neutrophil coculture", "value": "0.692 and 1.126 and 1.001 and 1.013 and 0.9854 and 1.021"}, {"measurement": "lung c/t GSDMD (Figure 5D)", "setting": "c-GSDMD [2]; DLL4^+ neutrophils + CLP", "value": "2.146 and 1.894 and 1.978 and 1.095 and 1.287 and 1.8342"}, {"measurement": "effect on lung c-GSDMD", "setting": "c-GSDMD [2]; DLL4^+ neutrophils/sepsis", "value": "attenuated the expression/activation"}, {"measurement": "lung c/t GSDMD (Figure 5D)", "setting": "c-GSDMD [2]; DLL4^– neutrophils + CLP", "value": "1.599 and 0.7489 and 0.6289 and 1.139 and 1.05"}, {"measurement": "effect on serum AST", "setting": "C57BL/6 mice, CLP sepsis; DLL4^+ neutrophil-injected CLP mice, 10 mg/kg", "value": "significantly reduced the serum levels of hepatic and cell injury markers and proinflammatory cytokines"}, {"measurement": "serum AST (Figure 6B)", "setting": "C57BL/6 mice, CLP sepsis; DLL4^+ neutrophils + CLP", "value": "63.648 and 54.808 and 59.67 and 72.046 and 53.04 and 50.83 and 58.786 and 52.156 and 37.57 and 64.974 and 46.852 and 66.3 and 46.41 and 34.918 and 42.432 and 51.272"}, {"measurement": "serum AST (Figure 6B)", "setting": "C57BL/6 mice, CLP sepsis; DLL4^– neutrophils + CLP", "value": "66.3 and 67.184 and 102.102 and 72.046 and 55.25 and 53.482 and 43.758 and 50.83"}]}]}
